# Results published in ChEMBL document CHEMBL3132770, “4-Aminocyclopentane-1,3-diols as platforms for diversity: synthesis of a screening library” (Medchemcomm, 2014).
# What was measured:
# Assay type in all cases: functional, cell-based
# MCF7 = assay: Cytotoxicity against human MCF7 cells assessed as growth inhibition after 96 hrs by crystal violet staining assay; conditions: MCF7, 96 h
# 5637 = assay: Cytotoxicity against human 5637 cells assessed as growth inhibition after 96 hrs by crystal violet staining assay; conditions: Homo sapiens, 5637, 96 h
# [1] = Cytotoxicity against human LCLC-103H cells assessed as growth inhibition after 96 hrs by crystal violet staining assay
# DAN-G = assay: Cytotoxicity against human DAN-G cells assessed as growth inhibition after 96 hrs by crystal violet staining assay
SMILES,IC50 (MCF7),IC50 5637,IC50 [1],IC50 (DAN-G)
O=C(N[C@@H]1C[C@H](Oc2ccc(-c3ccccc3)cc2)C[C@H]1O)C(c1ccccc1)c1ccccc1 (racemic),8.91 µM,12.2 µM,12.3 µM,13 µM
O=C(O)CCCc1ccc(N(CCCl)CCCl)cc1 [CHLORAMBUCIL],–,–,14.5 µM,27.8 µM
O=C(N[C@H]1C[C@H](Oc2ccc(-c3ccccc3)cc2)C[C@@H]1O)C(c1ccccc1)c1ccccc1 (racemic),10.3 µM,12.5 µM,13.1 µM,17.5 µM
O=C(CCC(=O)c1ccc(-c2ccccc2)cc1)N[C@@H]1C[C@H](OCc2ccccc2)C[C@H]1O (racemic),16 µM,> 20 µM,> 20 µM,> 20 µM
O=C(CCC(=O)c1ccc(-c2ccccc2)cc1)N[C@H]1C[C@H](OCc2ccccc2)C[C@@H]1O (racemic),14.2 µM,20.4 µM,> 20 µM,> 20 µM
N[C@@H](Cc1ccc(N(CCCl)CCCl)cc1)C(=O)O [MELPHALAN],–,1.32 µM,4 µM,–
O=C(CCCc1c[nH]c2ccccc12)N[C@@H]1C[C@H](Oc2ccc(-c3ccccc3)cc2)C[C@H]1O (racemic),6.76 µM,11.9 µM,13.6 µM,12.8 µM
